These results are taken from publication PMC10156683, “Male-selective effects of oxytocin agonism on alcohol intake: behavioral assessment in socially housed prairie voles and involvement of RAGE” (Neuropsychopharmacology, 2022).

The test system of one data set is RAGE. The data set is described as follows: Involvement of RAGE in brain penetration of d5 OXT: pre-treatment with RAGE antagonist FPS ZM1. It counts as in vivo, prairie vole (Microtus ochrogaster). The source says: Following confirmation of the presence of RAGE mRNA and protein in prairie vole brain using RT-PCR and immunohistochemistry as described in the Supplementary Material, we tested whether IN or IP administered OXT penetrates into the brain and whether the RAGE protein is involved in this transport. Adult female and male prairie voles were assigned to control or treatment groups. Animals in the treatment group received the high affinity, BBB-permeant RAGE antagonist FPS ZM1 and control animals received saline 30 min prior to administration of oxytocin-(leucine-5,5,5-d3, glycine-2,2-d2) trifluoroacetate salt (d5 OXT) in saline to all animals. […]
(§1) Alcohol and water intake were calculated for each animal as liquid consumed in grams (adjusted per density of 5% (v/v) ethanol and water) over body weight in kilograms. Alcohol and water drink size were determined by the volume of liquid consumed (ml) per consumption event. Consumptive visits were defined as channel entries during which a consumption event was recorded. […] Cumulative measures were analyzed at hourly intervals for 24 h post-treatment. […]
In 5 (1 control female, 2 control males, 1 pre-treated female and 1 pre-treated male) out of 57 cases levels were above or below 2 standard deviations from the mean and thus removed from analysis. In cases when no d5 OXT was detected, the concentration was entered as zero (17 total). […]

A further data set deals with AVPR1a. Particulars: cited from earlier work. The source says: Determining the behavioral and molecular effects of OXT on alcohol consumption is important for translational application and optimization of treatment efficacy. […] Given OXT’s low brain-penetrance and potentially non-specific effects on the related vasopressin receptor AVPR1a, development of an OXTR receptor agonist with a more desirable pharmacokinetic profile could increase the tran ...

The nature of another data set: in vivo. Also on record: species or system prairie vole (Microtus ochrogaster). The note with it: for tissue level at time at 10 min: female.
Description: Following confirmation of the presence of RAGE mRNA and protein in prairie vole brain using RT-PCR and immunohistochemistry as described in the Supplementary Material, we tested whether IN or IP administered OXT penetrates into the brain and whether the RAGE protein is involved in this transport. Adult female and male prairie voles were assigned to control or treatment groups. Animals in the treatment group received the high affinity, BBB-permeant RAGE antagonist FPS ZM1 and control animals received saline 30 min prior to administration of oxytocin-(leucine-5,5,5-d3, glycine-2,2-d2) trifluoroacetate salt (d5 OXT) in saline to all animals. After 10 min, animals were deeply anaesthetized under 4% isoflurane and perfused with heparinized saline. […] Brains were extracted and snap-frozen in isopentane, then stored at −80 °C until prepared for analysis via LC-MS/MS (Supplementary Fig. S2).
OXT acetate salt (Bachem, Torrence, CA, USA) was dissolved in normal saline to doses of 5.0 mg/kg and 10.0 mg/kg (25 µl, IN). LIT-001 was synthesized in the laboratory of Dr. Marcel Hibert. […]
as §1
Adult female and male prairie voles (75- 207d) were assigned to control (n =28; females = 14) or treatment (n = 29; females = 15) groups pseudo-randomly to ensure genetic diversity across groups. Whole brain tissue samples (~650 mg) were homogenized, subjected to protein precipitation and solid-phase extraction, and analyzed for concentrations (pg/mg) of exogenous oxytocin-(leucine-5,5,5-d3, glycine-2,2-d2) trifluoroacetate salt (d5 OXT) using a Shimadzu Nexera-LCMS-8060 (Shimadzu, Kyoto, Japan) liquid chromatograph-triple quadrupole mass spectrometer. […]

The test system of data set [1] is prairie voles. Nature of the data set: Continuous-access two-bottle choice (CA-2BC) alcohol drinking in socially housed prairie voles, HM2 cages, mixed-cage design. It counts as in vivo, prairie vole (Microtus ochrogaster). The procedure: For experiments examining the effects of pharmacologically targeting the OXT system on alcohol (and water) consumption, adult female and male prairie voles were given ad libitum access to alcohol in a CA-2BC design for 6 days. […] Fluid consumption was measured before and after treatment (IN OXT or IP LIT-001, or vehicle) using the Herdsman-2 (HM2; MBrose Faaborg, Denmark) cage system. The HM2 system is designed to allow socially housed animals unrestrained access to and interaction with other animals in the cage, while accounting for precise, individualized measures of fluid intake through the combined use of balances and radiofrequency identification (RFID) implants. This cage system has been previously utilized to assess potential pharmacotherapies for AUD in rodents. Further details are provided in the Supplementary Material (Supplementary Fig. S1). Consistent with previous studies, a mixed-cage design (treated and control animals in the same cage) was used.
OXT acetate salt (Bachem, Torrence, CA, USA) was dissolved in normal saline to doses of 5.0 mg/kg and 10.0 mg/kg (25 µl, IN). LIT-001 was synthesized in the laboratory of Dr. Marcel Hibert. It was dissolved in 5% dimethyl sulfoxide in saline and administered at a dose of 10 mg/kg (IP). FPS ZM1 (1 mg/kg, IP; Tocris, Minneapolis, MN, USA) and d5 OXT (3 µg/25 µl, IN or 12 µg/0.1 ml, IP; Sigma-Aldrich, St. Louis, MO, USA) were dissolved in saline. The d5 OXT dose was based on previous assessments of OXT penetrance.
Alcohol and water intake were calculated for each animal as liquid consumed in grams (adjusted per density of 5% (v/v) ethanol and water) over body weight in kilograms. Alcohol and water drink size were determined by the volume of liquid consumed (ml) per consumption event. Consumptive visits were defined as channel entries during which a consumption event was recorded. […] Cumulative measures were analyzed at hourly intervals for 24 h post-treatment. Concentrations of d5 OXT (pg/mg of tissue) were obtained through LC-MS/MS analysis on a Shimadzu Nexera-LCMS-8060 instrument using a previously established method. Data analysis was performed in IBM SPSS Statistics 27 and visualization was performed in Prism 9.3.1. The distribution of many of these measures was not normal. Therefore, non-parametric statistics were applied, including Kruskal–Wallis test and post hoc analyses with Mann–Whitney U-test. While Results below only include p values, detailed statistical analyses are presented in Supplementary Material Table S1.
The Herdsman-2 (HM2) system was used in the experiments measuring alcohol consumption. The HM2 cage system consists of Techniplast 1500U Eurostandard type IV S (48 x 37.5 x 21cm) rodent housing cages equipped with two (11cm) channels (front and back) on one side and stairs specially designed to accommodate prairie voles. Each channel leads to a bottle (one water, one 5% ethanol in water, v/v) below which is a precision balance with a catch tray for spillage- which is automatically deducted from consumption calculations. Breakage of the photobeam at the entrance of the channel triggers the RFID reader to register the animal. A consumption event is initiated when the animal touches the drinking spout and a change of weight of at least 0.02 g is detected; the starting weight is saved and ending weight is registered only after the system receives a stable reading for 5 s. A consumption event is ended 30s after the last touch of the drinking spout, regardless of whether the animal remains in the channel. The system collects a number of measures, including: weight of liquid consumed, number of channel entries and consumptive vs. non-nutritive visits (whether liquid is consumed or not). […]

For data set [2] the following is noted: cited from earlier work. The source says: Determining the behavioral and molecular effects of OXT on alcohol consumption is important for translational application and optimization of treatment efficacy. […] While a statisti ...
Data set [3] concerns prairie voles. Particulars: both sexes, previous prairie vole study; cited from earlier work. The source says: Importantly, RAGE immunoreactivity was detected in the choroid plexus, hypothalamus and hippocampus, confirming expression in possible locations of central penetration. […] Studies in mice noted that the IN route of administration can result in hi ...

Where a name gives a salt, the structure may show the parent alone.

Regarding `O=C(c1ccc(Cl)cc1)N(Cc1ccccc1)C1CCCCC1` [FPS ZM1], the “Effect of antagonist pre-treatment on brain d5 OXT levels after IP d5 OXT (in words)” value in the data set with RAGE (female or male prairie voles, FPS ZM1 1 mg/kg IP 30 min before IP d5 OXT, control vs antagonist pre-treated, ps > 0.21) was “No significant differences”. In addition, in the data set on RAGE (male prairie voles, FPS ZM1 1 mg/kg IP 30 min before IN d5 OXT, vs vehicle pre-treated controls, p = 0.02), the “Effect of antagonist pre-treatment on brain d5 OXT levels after IN d5 OXT (in words)” value is reported as “significantly decreased”.

Consider `Cc1cc(C(=O)N2Cc3cnn(C)c3Nc3ccccc32)ccc1CNC(=O)N1CCN(Cc2cc(O)cc(O)c2)CC1` [WAY-267646], for which the “Affinity for the AVPR1a (in words)” value in the data set on AVPR1a was “moderate affinity”.

With `CC[C@H](C)[C@@H]1NC(=O)[C@H](Cc2ccc(O)cc2)NC(=O)[C@@H](N)CSSC[C@@H](C(=O)N2CCC[C@H]2C(=O)N[C@@H](CC(C)C)C(=O)NCC(N)=O)NC(=O)[C@H](CC(N)=O)NC(=O)[C@H](CCC(N)=O)NC1=O` [d5 OXT, oxytocin-(leucine-5,5,5-d3, glycine-2,2-d2) trifluoroacetate salt], the tissue level at time at 10 min in “in vivo” (3 ug) came to 0.006 ng/g; in “in vivo” (ip, 12 ug), 0.05 ng/g. The “Presence of d5 OXT in brain (in words)” value in “in vivo” (ip) was “detected”.

For Oxytocin [OXT], in the data set on prairie voles [1] (IN OXT 5 and 10 mg/kg, 3 h post-treatment), the “Water intake or drink size 3 h post-treatment (in words)” value was “No effect”. Also, the “Alcohol or water consumptive visits or non-nutritive visits (in words)” value in the data set on prairie voles [1] (IN OXT 5 and 10 mg/kg, females and males, any time point, p > 0.94) is “No significant differences”. In the data set with prairie voles [1] (both doses of IN OXT (5 and 10 mg/kg), 2 h post-treatment, Kruskal-Wallis p = 0.02), the “Alcohol intake at 2 h post-treatment (in words)” value is “decreased alcohol intake”. Also, the “Effect on alcohol consumption in females (in words)” value in the data set with prairie voles [1] (female prairie voles, IN OXT 5 and 10 mg/kg) is on record as “without affecting alcohol consumption”. Besides, in the data set on prairie voles [1] (male prairie voles, 5 mg/kg and 10 mg/kg IN OXT, 3 h post-treatment, Mann-Whitney p = 0.01 and p = 0.02), the “Alcohol intake vs control counterparts (in words)” value is “lower alcohol intake”. In the data set on prairie voles [1] (male prairie voles, 5 mg/kg and 10 mg/kg IN OXT, 3 h post-treatment, p = 0.01 and p = 0.02), the “Alcohol drink size vs control counterparts (in words)” value is listed as “smaller drink sizes”. Besides, the “Water intake at 2 h post-treatment (in words)” value with prairie voles [1] (male prairie voles, 10 mg/kg IN OXT, 2 h post-treatment, p = 0.04) is recorded as “increased water intake”. Besides, in data set [2], the “Bioavailability (in words)” value was “low bioavailability”, the “Metabolic stability (in words)” value is listed as “metabolically unstable” and the “Oral availability (in words)” value is reported as “not orally available”. The Half-life result in data set [2] (estimated) was “tens of minutes”. Further, the “Alcohol and water intake after IP OXT (in words)” value with prairie voles [3] is “decreased alcohol and water intake”.

In the case of TC-OT-39, the “Affinity for the AVPR1a (in words)” value in the data set on AVPR1a is “moderate affinity”.
